Assay results as given in patent publication US12281102B2, “Inhibitors of APOL1 and methods of using same” (Vertex Pharmaceuticals Incorporated, priority 2020, dated 2025).
Where two headings read alike, the source gives them in different places.

How the values were obtained:
G1 APOL1 = target: T1, G1 APOL1 (Homo sapiens, UniProt O14791, I384M/S342G); experiment: Acute APOL1 Thallium Assay with inducible stable clones of HEK 293 cells; assay type: cell-based; conditions: HEK 293 T-Rex inducible stable clone expressing G1 APOL1
T1 construct: expressed in transfected cells
T1 sequence (O14791 28-398 S342G/I384M): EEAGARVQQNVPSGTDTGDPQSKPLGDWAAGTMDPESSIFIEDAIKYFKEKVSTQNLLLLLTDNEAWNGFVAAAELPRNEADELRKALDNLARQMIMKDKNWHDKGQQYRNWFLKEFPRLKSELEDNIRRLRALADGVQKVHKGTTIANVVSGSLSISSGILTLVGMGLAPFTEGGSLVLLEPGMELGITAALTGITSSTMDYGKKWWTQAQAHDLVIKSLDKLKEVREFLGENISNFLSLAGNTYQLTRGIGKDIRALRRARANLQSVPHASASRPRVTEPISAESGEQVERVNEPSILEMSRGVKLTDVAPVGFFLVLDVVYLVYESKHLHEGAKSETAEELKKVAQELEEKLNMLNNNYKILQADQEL
Procedure, shortened: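 APOL1 pore function was measured as thallium influx, detected by a Tl+-sensitive fluorescent dye loaded as AM ester, on a FLIPR Tetra after Tl+ addition. Cells were HEK T-Rex G1 APOL1 clone DC3.25, 26,000 per well, induced with tetracycline at plating in Opti-MEM assay medium.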

APOL1 G1 Protein = target: T2, APOL1 G1 Protein (Homo sapiens, UniProt O14791, I384M/S342G); experiment: Trypanosoma brucei brucei lysis assay using APOL1 recombinant protein (AlamarBlue viability); assay type: cell-based; conditions: Trypanosoma brucei brucei lysis with recombinant APOL1 protein
T2 sequence (O14791 28-398 S342G/I384M): T1 sequence (O14791 28-398 S342G/I384M)

[1] = read-out: Thallium Assay (IC50)

SMILES	IC50 (G1 APOL1; [1]) [nM]	IC50 (G1 APOL1; Thallium Assay (IC50)) [nM]	IC50 (APOL1 G1 Protein) [nM]
N#Cc1ccc(-c2[nH]c3c(F)cc(F)cc3c2C2CC(CN)C2)cc1 (centres unmarked) [Compound 185]	< 250		< 250
NC1CC(c2c(-c3ccc(F)cc3)[nH]c3c(F)cccc23)C1 (centres unmarked) [Compound 6, 3-[7-fluoro-2-(4-fluorophenyl)-1H-indol-3-yl]cyclobutanamine]	250 to 1000		< 250
CC(=O)OC1CC(c2c(-c3ccc(F)cc3)[nH]c3c(F)cc(F)cc23)C1 (mixture of isomers) [Compound 173, [3-[5,7-difluoro-2-(4-fluorophenyl)-1H-indol-3-yl]cyclobutyl]acetate]	250 to 1000		< 250
NCC1CC(c2c(-c3ccc(OC(F)(F)F)cc3)[nH]c3c(F)cc(F)cc23)C1 (centres unmarked) [Compound 180]	< 250		< 250
NC[C@H]1C[C@H](c2c(-c3ccc(F)cc3)[nH]c3c(F)cc(F)cc32)C1 [Compound 188, ((1r,3r)-3-(5,7-difluoro-2-(4-fluorophenyl)-1H-indol-3-yl)cyclobutyl)methanamine]	< 250		< 250
NC[C@H]1C[C@@H](c2c(-c3ccc(F)cc3)[nH]c3c(F)cc(F)cc32)C1 [Compound 187, ((1s,3s)-3-(5,7-difluoro-2-(4-fluorophenyl)-1H-indol-3-yl)cyclobutyl)methanamine]	< 250		< 250
CC(C)(O)CC(=O)NC1CC(c2c(-c3ccc(F)cc3)[nH]c3c(F)cc(F)cc23)C1 (centres unmarked) [Compound 16, N-[3-[5,7-difluoro-2-(4-fluorophenyl)-1H-indol-3-yl]cyclobutyl]-3-hydroxy-3-methyl-butanamide]	250 to 1000		250 to 1000
Cc1cccc(-c2[nH]c3c(F)cc(F)cc3c2C2CC(CN)C2)c1 (centres unmarked) [Compound 181]	< 250		< 250
CC(=O)NC[C@H]1C[C@H](c2c(-c3ccc(F)cc3)[nH]c3c(F)cc(F)cc32)C1 [Compound 195]	< 250		
O=C(CCO)NC1CC(c2c(-c3ccc(F)cc3)[nH]c3c(F)cc(C(F)(F)F)cc23)C1 (mixture of isomers) [Compound 2, N-[3-[7-fluoro-2-(4-fluorophenyl)-5-(trifluoromethyl)-1H-indol-3-yl]cyclobutyl]-3-hydroxy-propanamide]	250 to 1000		
N#CCC(=O)N[C@H]1C[C@H](c2c(-c3ccc(F)cc3)[nH]c3c(F)cc(F)cc32)C1 [Compound 129]	< 250		
O=C(NC[C@H]1C[C@H](c2c(-c3ccc(F)cc3)[nH]c3c(F)cc(F)cc32)C1)[C@@H]1C[C@@H](O)CN1 [Compound 225]	250 to 1000		
CC1(C(=O)N[C@H]2C[C@H](c3c(-c4ccc(F)cc4)[nH]c4c(F)cc(F)cc43)C2)CCC(=O)NC1 (mixture of isomers) [Compound 97]	> 1000		
O=C(NC[C@H]1C[C@H](c2c(-c3ccc(F)cc3)[nH]c3c(F)cc(F)cc32)C1)[C@@H]1C[C@@H](F)CN1 [Compound 205]	< 250		
O=C(Cc1ccncn1)NC[C@H]1C[C@H](c2c(-c3ccc(F)cc3)[nH]c3c(F)cc(F)cc32)C1 [Compound 251]	> 1000		
C[C@H](NC(=O)OC(C)(C)C)C(=O)NC[C@H]1C[C@H](c2c(-c3ccc(F)cc3)[nH]c3c(F)cc(F)cc32)C1 [Compound 227]	> 1000		
CC(CC(=O)N[C@H]1C[C@H](c2c(-c3ccc(F)cc3)[nH]c3c(F)cc(F)cc32)C1)N1CCOCC1 (mixture of isomers) [Compound 102]	> 1000		
CN(C)CC(=O)N[C@H]1C[C@H](c2c(-c3ccc(F)cc3)[nH]c3c(F)cc(F)cc32)C1 [Compound 91]	> 1000		
N[C@H]1C[C@H](c2c(-c3ccc(F)cc3)[nH]c3c(F)cc(F)cc32)C1 [Compound 89, (1r,3r)-3-[5,7-difluoro-2-(4-fluorophenyl)-1H-indol-3-yl]cyclobutanamine]		< 250	
O=C(CC1CCOCC1)N[C@H]1C[C@H](c2c(-c3ccc(F)cc3)[nH]c3c(F)cc(F)cc32)C1 [Compound 100]	> 1000		
CS(=O)(=O)NCC(=O)NC[C@H]1C[C@@H](c2c(-c3ccc(F)cc3)[nH]c3c(F)cc(F)cc32)C1 [Compound 271]	> 1000		
Cn1ccnc1S(=O)(=O)N[C@H]1C[C@H](c2c(-c3ccc(F)cc3)[nH]c3c(F)cc(F)cc32)C1 [Compound 148]	> 1000		
CC1(C(=O)N[C@H]2C[C@@H](c3c(-c4ccc(F)cc4)[nH]c4c(F)cc(F)cc43)C2)CCC(=O)NC1 (mixture of isomers) [Compound 66]	> 1000		
Cn1ccnc1S(=O)(=O)N[C@H]1C[C@@H](c2c(-c3ccc(F)cc3)[nH]c3c(F)cc(F)cc32)C1 [Compound 85]	> 1000		
O=C(NC[C@H]1C[C@H](c2c(-c3ccc(F)cc3)[nH]c3c(F)cc(F)cc32)C1)c1ncccn1 [Compound 265]	> 1000		
O=C(N[C@H]1C[C@H](c2c(-c3ccc(F)cc3)[nH]c3c(F)cc(F)cc32)C1)C1(O)CC1 [Compound 135]	< 250		
O=C1CC[C@H](C(=O)NC[C@H]2C[C@@H](c3c(-c4ccc(F)cc4)[nH]c4c(F)cc(F)cc43)C2)N1 [Compound 249]	> 1000		
CC[C@H](NC(=O)OC(C)(C)C)C(=O)NC[C@H]1C[C@H](c2c(-c3ccc(F)cc3)[nH]c3c(F)cc(F)cc32)C1 [Compound 258]	> 1000		
CCS(=O)(=O)N[C@H]1C[C@@H](c2c(-c3ccc(F)cc3)[nH]c3c(F)cc(F)cc32)C1 [Compound 82]	> 1000		

More lines, main results first:

IC50 (G1 APOL1; [1]) [nM]	IC50 (G1 APOL1; Thallium Assay (IC50)) [nM]	SMILES	IC50 (APOL1 G1 Protein) [nM]
< 250		OCCNCC1CC(c2c(-c3ccc(F)cc3)[nH]c3c(F)cc(F)cc23)C1 (centres unmarked) [Compound 374, 2-[[3-[5,7-difluoro-2-(4-fluorophenyl)-1H-indol-3-yl]cyclobutyl]methylamino]ethanol]	< 250
> 1000		CC(=O)N1CCC(Cc2c(-c3ccc(F)cc3)[nH]c3c(F)cc(F)cc23)C1 (centres unmarked) [Compound 444, 1-(3-((5,7-difluoro-2-(4-fluorophenyl)-1H-indol-3-yl)methyl)pyrrolidin-1-yl)ethan-1-one]	250 to 1000
< 250		NC1CCC(c2c(-c3ccc(F)cc3)[nH]c3c(F)cc(F)cc23)CC1 (centres unmarked) [Compound 433, 4-[5,7-difluoro-2-(4-fluorophenyl)-1H-indol-3-yl]cyclohexanamine]	< 250
250 to 1000		N[C@H]1CC[C@H](c2c(-c3ccc(F)cc3)[nH]c3c(F)cc(F)cc32)CC1 (single isomer, unassigned) [Compound 434, Trans-4-[5,7-difluoro-2-(4-fluorophenyl)-1H-indol-3-yl]cyclohexanamine]	< 250
> 1000		O=S(=O)(NCCc1c[nH]cn1)NC[C@H]1C[C@H](c2c(-c3ccc(F)cc3)[nH]c3c(F)cc(F)cc32)C1 [Compound 359]	
> 1000		O=C(NC[C@H]1C[C@H](c2c(-c3ccc(F)cc3)[nH]c3c(F)cc(F)cc32)C1)c1cccnn1 [Compound 297]	
> 1000		CC(C)C(O)C(=O)NC[C@H]1C[C@@H](c2c(-c3ccc(F)cc3)[nH]c3c(F)cc(F)cc32)C1 (some centres unmarked) [Compound 301]	
> 1000		O=S(=O)(NC[C@H](O)CO)NC[C@H]1C[C@H](c2c(-c3ccc(F)cc3)[nH]c3c(F)cc(F)cc32)C1 [Compound 350]	
> 1000		CN1CCCC(CC(=O)NC[C@H]2C[C@@H](c3c(-c4ccc(F)cc4)[nH]c4c(F)cc(F)cc43)C2)C1 (some centres unmarked) [Compound 315]	
> 1000		O=C(CC1CCCOC1)NC[C@H]1C[C@@H](c2c(-c3ccc(F)cc3)[nH]c3c(F)cc(F)cc32)C1 (some centres unmarked) [Compound 323]	
250 to 1000		Fc1ccc(-c2[nH]c3c(F)cc(F)cc3c2C2CC(CNC3COC3)C2)cc1 (centres unmarked) [Compound 380]	
250 to 1000		CC(CCO)NS(=O)(=O)NC[C@H]1C[C@H](c2c(-c3ccc(F)cc3)[nH]c3c(F)cc(F)cc32)C1 (mixture of isomers) [Compound 362]	
> 1000		C[C@@H](NC(=O)OC(C)(C)C)C(=O)NC[C@H]1C[C@H](c2c(-c3ccc(F)cc3)[nH]c3c(F)cc(F)cc32)C1 [Compound 295]	
> 1000		O=C1NCC[C@@H]1NCC1CC(c2c(-c3ccc(F)cc3)[nH]c3c(F)cc(F)cc23)C1 (some centres unmarked) [Compound 400]	
> 1000		O=C(NC[C@H]1C[C@H](c2c(-c3ccc(F)cc3)[nH]c3c(F)cc(F)cc32)C1)c1ccc[nH]c1=O [Compound 330]	
> 1000		O=C(CC1(O)CCCCC1)NC[C@H]1C[C@@H](c2c(-c3ccc(F)cc3)[nH]c3c(F)cc(F)cc32)C1 [Compound 316]	
250 to 1000		O=C(c1c[nH]cn1)N1CC(c2c(-c3ccc(F)cc3)[nH]c3c(F)cc(F)cc23)C1 [Compound 441, (3-(5,7-difluoro-2-(4-fluorophenyl)-1H-indol-3-yl)azetidin-1-yl)(1H-imidazol-4-yl)methanone]	
> 1000		Fc1ccc(-c2[nH]c3c(F)cc(F)cc3c2C2CC(CN[C@H]3CCOC3)C2)cc1 (some centres unmarked) [Compound 398]	
250 to 1000		CNC(=O)c1noc(CNS(=O)(=O)NC[C@H]2C[C@H](c3c(-c4ccc(F)cc4)[nH]c4c(F)cc(F)cc43)C2)n1 [Compound 337]	
> 1000		O=S(=O)(NCCN1CCC(O)C1)NC[C@H]1C[C@H](c2c(-c3ccc(F)cc3)[nH]c3c(F)cc(F)cc32)C1 (some centres unmarked) [Compound 333]	
> 1000		O=C(CCN1CCCC1=O)NC[C@H]1C[C@@H](c2c(-c3ccc(F)cc3)[nH]c3c(F)cc(F)cc32)C1 [Compound 326]	
